Data as given in patent publication US20260028354A1, “TETRAHYDRONAPHTHALENE DERIVATIVES AS ESTROGEN RECEPTOR DEGRADERS” (REGENT OF THE UNIVERSITY OF MICHIGAN, priority 2022, published 2026).
Where two headings read alike, the source gives them in different places.

Key:
[1] = Cell growth assay (WST-8) for "B" compounds; format: cell-based; details: T47D, read-out: Cell growth Inhibition in T47D cell line IC50
In short: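 Four-day compound exposure of cells plated at 1500/well the day before. Read-out is WST-8 (10%, 2.5 h, 37 °C) absorbance at 450 nm, normalized to vehicle control over three independent repeats.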

ER = ER (Homo sapiens (Human), UniProt P03372); test: In-cell western blot analysis of ER for "B" compounds; format: cell-based; details: 16 hours, read-out: ICW DC50
In short: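 ER levels given as a percentage of untreated/DMSO-treated wells (100%). Detection used primary antibodies for 2 h at room temperature followed by 680 and 800 nm fluorescent secondaries at 1:1000 for 1 h, read by LI-COR imaging.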

Sequence of ER (P03372 whole entry): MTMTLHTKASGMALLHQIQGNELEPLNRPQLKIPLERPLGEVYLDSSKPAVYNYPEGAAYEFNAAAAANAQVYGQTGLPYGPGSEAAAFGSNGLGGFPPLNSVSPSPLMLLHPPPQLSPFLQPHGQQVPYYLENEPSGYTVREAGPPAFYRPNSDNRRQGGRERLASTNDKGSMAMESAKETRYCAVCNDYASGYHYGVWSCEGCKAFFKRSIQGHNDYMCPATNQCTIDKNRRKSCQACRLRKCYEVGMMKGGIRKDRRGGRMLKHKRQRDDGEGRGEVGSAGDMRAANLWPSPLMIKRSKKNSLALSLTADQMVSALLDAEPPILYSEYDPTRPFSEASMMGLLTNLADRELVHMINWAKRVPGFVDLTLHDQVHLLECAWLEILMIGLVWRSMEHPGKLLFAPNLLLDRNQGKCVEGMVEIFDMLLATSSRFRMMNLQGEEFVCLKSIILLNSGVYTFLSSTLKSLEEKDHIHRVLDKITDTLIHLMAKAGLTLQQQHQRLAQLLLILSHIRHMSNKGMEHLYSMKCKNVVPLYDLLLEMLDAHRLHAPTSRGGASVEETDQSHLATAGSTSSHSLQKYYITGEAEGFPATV

Row | SMILES | IC50 ([1]; T47D cell line) | DC50 (ER) | IC50 [1]
1 | O=C1CCC(N2Cc3cc4c(cc3C2=O)OC[C@@H]2CN(C(=O)CN3CC5(C3)CN(c3ccc([C@@H]6c7ccc(O)cc7CC[C@@H]6c6ccccc6)cc3)C5)CCN42)C(=O)N1 (stereo partly drawn) [Compound B205, 3-((S)-3-(2-(6-(4-((1R,2S)-6-hydroxy-2-phenyl-1,2,3,4-tctrahydronaphthalen-1-yl)phenyl)-2,6-diazaspiro[3.3]heptan-2-yl)acetyl)-8-oxo-1,2,3,4,4a,5,8,10-octahydro-9H-pyrazino[1′,2′:4,5][1,4]oxazino[2,3-f]isoindol-9-yl)piperidine-2,6-dione] | 1 to 10 nM | < 10 nM | 
2 | O=C1CCC(N2Cc3cc4c(cc3C2=O)OC[C@@H]2CN(C(=O)CN3CC5(CCN(c6ccc([C@@H]7c8ccc(O)cc8CC[C@@H]7c7ccccc7)cc6)C5)C3)CCN42)C(=O)N1 (stereo partly drawn) [Compound B206, 3-((S)-3-(2-(6-(4-((1R,2S)-6-hydroxy-2-phenyl-1,2,3,4-tetrahydronaphthalen-1-yl)phenyl)-2,6-diazaspiro[3.4]octan-2-yl)acetyl)-8-oxo-1,2,3,4,4a,5,8,10-octahydro-9H-pyrazino[1′,2′:4,5][1,4]oxazino[2,3-f]isoindol-9-yl)piperidine-2,6-dione] | < 1 nM | < 10 nM | 
3 | O=C1CCC(N2Cc3cc4c(cc3C2=O)OC[C@@H]2CN(CC(=O)N3CC(Nc5ccc([C@@H]6c7ccc(O)cc7CC[C@@H]6c6ccccc6)cc5)C3)CCN42)C(=O)N1 (stereo partly drawn) [Compound B207, 3-((S)-3-(2-(3-((4-((1R,2S)-6-hydroxy-2-phenyl-1,2,3,4-tetrahydronaphthalen-1-yl)phenyl)amino)azetidin-1-yl)-2-oxoethyl)-8-oxo-1,2,3,4,4a,5,8,10-octahydro-9H-pyrazino[1′,2′:4,5][1,4]oxazino[2,3-f]isoindol-9-yl)piperidine-2,6-dione] | < 1 nM | < 10 nM | 
4 | O=C1CCC(N2Cc3cc4c(cc3C2=O)OC[C@@H]2CN(CC(=O)N3CC5(C3)CN(c3ccc([C@@H]6c7ccc(O)cc7CC[C@@H]6c6ccccc6)cc3)C5)CCN42)C(=O)N1 (stereo partly drawn) [Compound B208, 3-((S)-3-(2-(6-(4-((1R,2S)-6-hydroxy-2-phenyl-1,2,3,4-tetrahydronaphthalen-1-yl)phenyl)-2,6-diazaspiro[3.3]heptan-2-yl)-2-oxoethyl)-8-oxo-1,2,3,4,4a,5,8,10-octahydro-9H-pyrazino[1′,2′:4,5][1,4]oxazino[2,3-f]isoindol-9-yl)piperidine-2,6-dione] | < 1 nM | < 10 nM | 
5 | O=C1CCC(N2Cc3cc4c(cc3C2=O)OC[C@@H]2CN(CC(=O)N3CC5(CCN(c6ccc([C@@H]7c8ccc(O)cc8CC[C@@H]7c7ccccc7)cc6)C5)C3)CCN42)C(=O)N1 (stereo partly drawn) [Compound B209, 3-((S)-3-(2-(6-(4-((1R,2S)-6-hydroxy-2-phenyl-1,2,3,4-tetrahydronaphthalen-1-yl)phenyl)-2,6-diazaspiro[3.4]octan-2-yl)-2-oxoethyl)-8-oxo-1,2,3,4,4a,5,8,10-octahydro-9H-pyrazino[1′,2′:4,5][1,4]oxazino[2,3-f]isoindol-9-yl)piperidine-2,6-dione] | < 1 nM | < 10 nM | 
6 | COc1c2c(cc3c1CN(C1CCC(=O)NC1=O)C3=O)CN(C(=O)CN1CCC3(CC1)CCN(c1ccc([C@@H]4c5ccc(O)cc5CC[C@@H]4c4ccccc4)cc1)CC3)C2 (stereo partly drawn) [Compound B210, 3-(6-(2-(9-(4-((1R,2S)-6-hydroxy-2-phenyl-1,2,3,4-tetrahydronaphthalen-1-yl)phenyl)-3,9-diazaspiro[5.5]undecan-3-yl)acetyl)-4-methoxy-1-oxo-3,5,6,7-tetrahydropyrrolo[3,4-f]isoindol-2(1H)-yl)piperidine-2,6-dione] | < 1 nM | < 10 nM | 
7 | O=C1CCC(N2Cc3cc4c(cc3C2=O)OC[C@@H]2CN(CC3CC5(CCN(c6ccc([C@@H]7c8ccc(O)cc8CC[C@@H]7c7ccccc7)cc6)CC5)C3)CCN42)C(=O)N1 (stereo partly drawn) [Compound B211, 3-((S)-3-((7-(4-((1R,2S)-6-hydroxy-2-phenyl-1,2,3,4-tetrahydronaphthalen-1-yl)phenyl)-7-azaspiro[3.5]nonan-2-yl)methyl)-8-oxo-1,2,3,4,4a,5,8,10-octahydro-9H-pyrazino[1′,2′:4,5][1,4]oxazino[2,3-f]isoindol-9-yl)piperidine-2,6-dione] | 1 to 10 nM | < 10 nM | 
8 | O=C1CCC(N2Cc3c(ccc4c3OCC43CCN(CC(=O)N4CC5(CCN(c6ccc([C@@H]7c8ccc(O)cc8CC[C@@H]7c7ccccc7)cc6)C5)C4)CC3)C2=O)C(=O)N1 (stereo partly drawn) [Compound B212, 3-(1′-(2-(6-(4-((1R,2S)-6-hydroxy-2-phenyl-1,2,3,4-tetrahydronaphthalen-1-yl)phenyl)-2,6-diazaspiro[3.4]octan-2-yl)-2-oxoethyl)-6-oxo-6,8-dihydro-2H,7H-spiro[furo[2,3-e]isoindole-3,4′-piperidin]-7-yl)piperidine-2,6-dione] |  | < 10 nM | < 1 nM
9 | O=C1CCC(N2Cc3c(ccc4c3OCC43CCN(CC(=O)N4CCC5(CC4)CN(c4ccc([C@@H]6c7ccc(O)cc7CC[C@@H]6c6ccccc6)cc4)C5)CC3)C2=O)C(=O)N1 (stereo partly drawn) [Compound B213, 3-(1′-(2-(2-(4-((1R,2S)-6-hydroxy-2-phenyl-1,2,3,4-tetrahydronaphthalen-1-yl)phenyl)-2,7-diazaspiro[3.5]nonan-7-yl)-2-oxoethyl)-6-oxo-6,8-dihydro-2H,7H-spiro[furo[2,3-e]isoindole-3,4′-piperidin]-7-yl)piperidine-2,6-dione] |  | < 10 nM | < 1 nM
10 | O=C1CCC(N2Cc3c(ccc4c3OCC43CCN(C(=O)CN4CCC5(CC4)CN(c4ccc([C@@H]6c7ccc(O)cc7CC[C@@H]6c6ccccc6)cc4)C5)CC3)C2=O)C(=O)N1 (stereo partly drawn) [Compound B214, 3-(1′-(2-(2-(4-((1R,2S)-6-hydroxy-2-phenyl-1,2,3,4-tetrahydronaphthalen-1-yl)phenyl)-2,7-diazaspiro[3.5]nonan-7-yl)acctyl)-6-oxo-6,8-dihydro-2H,7H-spiro[furo[2,3-e]isoindole-3,4′-piperidin]-7-yl)piperidine-2,6-dione] | < 1 nM | < 10 nM | 
11 | O=C1CCC(N2Cc3c(ccc4c3OC[C@H]3CN(C[C@@H]5CCN(c6ccc([C@@H]7c8ccc(O)cc8CC[C@@H]7c7ccccc7)cc6)C5)CCN43)C2=O)C(=O)N1 (stereo partly drawn) [Compound B215, 3-((R)-7-(((S)-1-(4-((1R,2S)-6-hydroxy-2-phenyl-1,2,3,4-tetrahydronaphthalen-1-yl)phenyl)pyrrolidin-3-yl)methyl)-1-oxo-1,3,5,5a,6,7,8,9-octahydro-2H-pyrazino[1′,2′:4,5][1,4]oxazino[2,3-e]isoindol-2-yl)piperidine-2,6-dione] | 1 to 10 nM | 10 to 100 nM | 
12 | O=C1CCC(N2Cc3c(ccc4c3OC[C@H]3CN(C[C@H]5CCN(c6ccc([C@@H]7c8ccc(O)cc8CC[C@@H]7c7ccccc7)cc6)C5)CCN43)C2=O)C(=O)N1 (stereo partly drawn) [Compound B216, 3-((R)-7-(((R)-1-(4-((1R,2S)-6-hydroxy-2-phenyl-1,2,3,4-tetrahydronaphthalen-1-yl)phenyl)pyrrolidin-3-yl)methyl)-1-oxo-1,3,5,5a,6,7,8,9-octahydro-2H-pyrazino[1′,2′:4,5][1,4]oxazino[2,3-e]isoindol-2-yl)piperidine-2,6-dione] | > 10 nM | 10 to 100 nM | 
